Some results are limits rather than exact numbers.

Results on 1 molecule are retold here after EPA's ToxValDB 9.5 (doi:10.2903/j.efsa.2014.3744).

The subject of one data set is Tagia sp. To be noted: acute; duration: 14 days; mortality.
Another data set deals with Daphnia magna. The conditions noted are these: chronic/long-term; duration: 21 days; reproduction.
Another data set has as its system Canidae. To be noted: chronic; duration: 1 years; oral; Dog Other; clinical chemistry.
For a further data set, the system named is Apis mellifera. To be noted: acute, duration: 48 hours, mortality.
In a further data set the test system is Oncorhynchus mykiss. To be noted: chronic/long-term; duration: 96 days; growth.

As to `CC1(C(=O)Nc2ccc(O)c(Cl)c2Cl)CCCCC1` [Fenhexamid], the LC50 was at least 1000 mg/kg in the data set on Tagia sp. and above 804 mg/kg-day in the data set on Colinus virginianus (acute, oral, diet, mortality). Moreover, the figures for the NOEC in the data set on Daphnia magna, in the data set with Colinus virginianus (reproduction developmental) and in the data set on Oncorhynchus mykiss were 1.03 mg/L, 154 mg/kg-day and 0.101 mg/L, respectively. For the same molecule, the LD50 with Colinus virginianus (acute, oral, mortality) was above 2000 mg/kg-day; in the data set on Rattus norvegicus (acute, oral, mortality), above 5000 mg/kg-day; in the data set on Apis mellifera (dermal), above 200 µg/piece; with Apis mellifera (oral, unspecified), above 102 µg/piece. The NOAEL was determined as 19.2 mg/kg-day in the data set on Canidae and 40.2 mg/kg-day in the data set with Rattus norvegicus (reproduction developmental).

A word on the NOAEL: it is the highest tested level that showed no adverse finding.
